Results from the supplement of paper PMC12592484.

Legend:
Experiment in all cases: drug sensitivity score (DSS2, normalised partial AUC of dose-response, 72 h CellTiter-Glo viability) (DSS (dimensionless)); higher = more sensitive (stronger growth inhibition / cytotoxicity); extreme values may be limits of the assay
22Rv1 = tested on: 22Rv1
In short: (§1)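 In BREEZE, the drug sensitivity score was derived as a partial area under a fitted logistic dose–response curve over the log of that curve's upper asymptote; a higher score marks a more sensitive response. The input came from low-passage primary prostate cancer-associated fibroblasts, PF179T, WPMY-1, LNCaP and 22Rv1 cells, each seeded into 384-well plates with compounds pre-dispensed at five doses spanning a 10,000-fold range. CellTiter-Glo 2.0 luminescence after 72 h gave viability, which was normalized to vehicle and positive-control wells.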

CAF#1 = tested on: CAF#1 (primary prostate cancer-associated fibroblasts of myCAF-like type)
In short: as §1

CAF#2 = tested on: CAF#2 (primary prostate cancer-associated fibroblasts of iCAF-like type)
In short: as §1

CAF#3 = tested on: CAF#3 (primary prostate cancer-associated fibroblasts of myCAF-like type)
In short: as §1

CAF#4 = tested on: CAF#4 (primary prostate cancer-associated fibroblasts of iCAF-like type)
In short: as §1

CAF#5 = tested on: CAF#5 (primary prostate cancer-associated fibroblasts of myCAF-like type)
In short: as §1

CAF#6 = tested on: CAF#6 (primary prostate cancer-associated fibroblasts of iCAF-like type)
In short: as §1

CAF#7 = tested on: CAF#7 (primary prostate cancer-associated fibroblasts of myCAF-like type)
In short: as §1

LNCAP = tested on: LNCAP
In short: as §1

PF179T = tested on: PF179T
In short: as §1

WPMY-1 = tested on: WPMY-1
In short: as §1

SMILES | drug sensitivity score (22Rv1) | drug sensitivity score (CAF#1) | drug sensitivity score (CAF#2) | drug sensitivity score (CAF#3) | drug sensitivity score (CAF#4) | drug sensitivity score (CAF#5) | drug sensitivity score (CAF#6) | drug sensitivity score (CAF#7) | drug sensitivity score (LNCAP) | drug sensitivity score (PF179T) | drug sensitivity score (WPMY-1)
Cc1c2oc3c(C)ccc(C(=O)N[C@@H]4C(=O)N[C@H](C(C)C)C(=O)N5CCC[C@H]5C(=O)N(C)CC(=O)N(C)[C@@H](C(C)C)C(=O)O[C@@H]4C)c3nc-2c(C(=O)N[C@@H]2C(=O)N[C@H](C(C)C)C(=O)N3CCC[C@H]3C(=O)N(C)CC(=O)N(C)[C@@H](C(C)C)C(=O)O[C@@H]2C)c(N)c1=O [Dactinomycin] (tested concentration range 0.1-1000 nM) | 31.8 | 24.7 | 23.2 | 23 | 17.2 | 21.1 | 19.8 | 22.6 | 39.3 | 17.2 | 26.5
O=C(/C=C/c1cccnc1)NCCCCC1CCN(C(=O)c2ccccc2)CC1 [Daporinad] (tested concentration range 0.1-1000 nM) | 25.6 | 13.9 | 25.8 | 12.8 | 23.6 | 13.9 | 16.5 | 17.5 | 26.9 | 21.3 | 29.4
CCN(CC)CCN(Cc1ccc(-c2ccc(C(F)(F)F)cc2)cc1)C(=O)Cn1c(SCc2ccc(F)cc2)nc(=O)c2c1CCC2 [Darapladib] (tested concentration range 0.1-1000 nM) | 3.7 | 0 | 0 | 0.1 | 1 | 0.7 | 0 | 0 | 0 | 0 | 1.3
CC(O)c1cc(C(=O)N[C@@H](C)Cn2ccc(-c3ccc(C#N)c(Cl)c3)n2)n[nH]1 (stereo partly drawn) [Darolutamide] (tested concentration range 0.2-2500 nM) | 0.6 | 3.1 | 2.2 | 0.1 | 4.4 | 2.9 | 0 | 0 | 0.1 | 0 | 0
Cc1nc(Nc2ncc(C(=O)Nc3c(C)cccc3Cl)s2)cc(N2CCN(CCO)CC2)n1 [Dasatinib] (tested concentration range 0.1-1000 nM) | 0 | 13.8 | 15.5 | 13.7 | 10.3 | 15.2 | 13 | 15.3 | 5 | 11.7 | 5.3
COc1cccc2c1C(=O)c1c(O)c3c(c(O)c1C2=O)C[C@@](O)(C(C)=O)C[C@@H]3O[C@H]1C[C@H](N)[C@H](O)[C@H](C)O1 [Daunorubicin] (tested concentration range 0.1-1000 nM) | 12.9 | 7.3 | 9.4 | 6.4 | 4.2 | 6.6 | 7.9 | 8.4 | 17.5 | 8.6 | 10.7
CC[C@@](C)(Nc1ccnc(-c2c[nH]c3ncccc23)n1)C(=O)NCC(F)(F)F [Decernotinib] (tested concentration range 1-10000 nM) | 0 | 0.2 | 0.1 | 0.5 | 0 | 0 | 0 | 0 | 0 | 0 | 0.7
Nc1ncn([C@H]2C[C@H](O)[C@@H](CO)O2)c(=O)n1 [Decitabine] (tested concentration range 1-10000 nM) | 1.1 | 0 | 0.8 | 0.1 | 0 | 1.6 | 0.6 | 0 | 0 | 1.8 | 0.8
CC(=O)N(O)CCCCCNC(=O)CCC(=O)N(O)CCCCCNC(=O)CCC(=O)N(O)CCCCCN [Deferoxamine] (tested concentration range 1-10000 nM) | 4.9 | 0.9 | 4.8 | 0.2 | 3.2 | 2.4 | 1.4 | 1.6 | 3.2 | 5.7 | 5.3
O=C(O)CCCCC(CCSCc1ccccc1)SCc1ccccc1 (stereo not drawn) [Devimistat] (tested concentration range 1-10000 nM) | 0 | 0 | 0 | 0 | 0 | 0 | 0 | 0 | 0 | 0 | 0
C[C@@H]1C[C@H]2[C@@H]3CCC4=CC(=O)C=C[C@]4(C)[C@@]3(F)[C@@H](O)C[C@]2(C)[C@@]1(O)C(=O)CO [Dexamethasone] (tested concentration range 1-10000 nM) | 0 | 0 | 0 | 0 | 0 | 0 | 0 | 0.3 | 0 | 0 | 0
C[C@H]1O[C@@H](O[C@H]2[C@@H](O)C[C@H](O[C@H]3[C@@H](O)C[C@H](O[C@H]4CC[C@@]5(C)[C@H](CC[C@@H]6[C@@H]5C[C@@H](O)[C@]5(C)[C@@H](C7=CC(=O)OC7)CC[C@]65O)C4)O[C@@H]3C)O[C@@H]2C)C[C@H](O)[C@@H]1O [Digoxin] (tested concentration range 0.1-1000 nM) | 14.4 | 10.2 | 13.8 | 8.7 | 19.4 | 13.4 | 10.8 | 11.2 | 12 | 13.6 | 14.7
CCc1cnn2c(NCc3ccc[n+]([O-])c3)cc(N3CCCC[C@H]3CCO)nc12 [Dinaciclib] (tested concentration range 0.1-1000 nM) | 21.5 | 18.5 | 18.2 | 12.3 | 13 | 18 | 14.2 | 15.9 | 27.6 | 10.6 | 18.9
CCN(CC)C(=S)SSC(=S)N(CC)CC [Disulfiram] (tested concentration range 5-50000 nM) | 0 | 5 | 3.7 | 0 | 0.9 | 6.6 | 0 | 0.1 | 0.1 | 0 | 0
CC(=O)O[C@@]12CO[C@@H]1C[C@H](O)[C@@]1(C)C(=O)[C@H](O)C3=C(C)[C@@H](OC(=O)[C@H](O)[C@@H](NC(=O)OC(C)(C)C)c4ccccc4)C[C@@](O)([C@@H](OC(=O)c4ccccc4)[C@H]21)C3(C)C [Docetaxel] (tested concentration range 0.1-1000 nM) | 25.4 | 16.4 | 20.6 | 12.8 | 14.2 | 17.2 | 16.7 | 25.6 | 34.6 | 19.7 | 28.3
Cc1ccc(-n2nc(C(C)(C)C)cc2NC(=O)Nc2ccc(OCCN3CCOCC3)c3ccccc23)cc1 [Doramapimod] (tested concentration range 1-10000 nM) | 2.5 | 1.9 | 2.7 | 1.2 | 0 | 0.6 | 0.9 | 1.4 | 5.4 | 2.1 | 0
CN1CCN(c2ccc3nc(-c4c(N)c5c(F)cccc5[nH]c4=O)[nH]c3c2)CC1 [Dovitinib] (tested concentration range 1-10000 nM) | 0.2 | 0.2 | 2.6 | 0.7 | 0 | 0.8 | 0 | 0 | 0.3 | 0 | 0
COc1cccc2c1C(=O)c1c(O)c3c(c(O)c1C2=O)C[C@@](O)(C(=O)CO)C[C@@H]3O[C@H]1C[C@H](N)[C@H](O)[C@H](C)O1 [Doxorubicin] (tested concentration range 0.1-1000 nM) | 12.2 | 6.5 | 7.8 | 0 | 2.6 | 6.7 | 0 | 0 | 0 | 7.5 | 9.8
C[C@H](Nc1ncnc2nc[nH]c12)c1cc2cccc(Cl)c2c(=O)n1-c1ccccc1 [Duvelisib] (tested concentration range 0-500 nM) | 0 | 1.1 | 1 | 3.4 | 1.7 | 2.3 | 1.3 | 1.9 | 11 | 1.7 | 0.5
NC(=O)/C(=C/n1cnc(-c2cc(C(F)(F)F)cc(C(F)(F)F)c2)n1)c1cncnc1 [Eltanexor] (tested concentration range 1-10000 nM) | 31.1 | 14.5 | 22.8 | 10.8 | 15.5 | 16.8 | 12.1 | 14.4 | 28.6 | 18.2 | 27.5
CC(C)(O)CNc1nc(Nc2ccnc(C(F)(F)F)c2)nc(-c2cccc(C(F)(F)F)n2)n1 [Enasidenib] (tested concentration range 1-10000 nM) | 1.7 | 0 | 0 | 0.4 | 0 | 0 | 0 | 0 | 1.2 | 0 | 0
COC(=O)N[C@@H](C)CNc1nccc(-c2cn(C(C)C)nc2-c2cc(Cl)cc(NS(C)(=O)=O)c2F)n1 [Encorafenib] (tested concentration range 0.1-1000 nM) | 2.3 | 0.6 | 0 | 2 | 0.5 | 0.7 | 0.9 | 1.3 | 2.3 | 0.6 | 0
C[C@@H]1CN(C(=O)c2ccc(NC(=O)c3cc(O[C@H](C)c4c(Cl)ccc(F)c4Cl)c(N)nn3)cc2)C[C@H](C)N1 [Ensartinib] (tested concentration range 0.1-1000 nM) | 2.1 | 2.2 | 3.1 | 2.7 | 0.7 | 4.1 | 2.2 | 0.8 | 1.4 | 2.3 | 3
